Measured values: patent US11612615B2, “Combined administration of cysteine-aspartic protease inhibitors with P2Y12 receptor antagonists protects the heart against myocardial infarction” (The University of South Alabama, priority 2017, dated 2023)
Entries after “also recorded” stand apart in the source; their conditions may differ.

Tests used:
[1] = tested on: I/R injury of the heart (LAD occlusion); assay: In situ open-chest LAD occlusion, 60-min ischemia/120-min reperfusion, infarct size by TTC staining; type: in vivo, Sprague-Dawley rats; conditions: for infarct size / cardioprotection (in words): open chest rat hearts, 60 min ischemia/120-min reperfusion, treatment just prior to reperfusion; for infarction, % of the risk zone: rat, 60-min LAD ligation/120-min reperfusion, VX-765 32 mg/kg iv 5 min, cangrelor 60 μg/kg iv bolus + 6 μg/kg/min, ticagrelor 30 mg/kg ip 10 min prior to reperfusion, mean ± standard error
[2] = tested on: buffer perfused mouse hearts (global ischemia); assay: Isolated buffer-perfused mouse heart, 35 or 50 min global ischemia/2 h reperfusion, infarct size; design: species or system C57BL/6 mice; conditions: for infarct size reduction (in words): mouse heart, 30 uM VX-765 10 min prior to ischemia and throughout reperfusion, 9 uM emricasan first 20 min of reperfusion, FIG. 9
Experimental: Hearts were removed from pentobarbital-anesthetized C57BL/6 mice and quickly (less than 3 min) mounted on a Langendorff perfusion apparatus where they were retroperfused with Krebs buffer at 100 mmHg pressure and at 37 Deg C. After 20 min perfusion to equilibrate the perfusion was stopped to create global ischemia. After and index ischemia of either 35 or 50 min the hearts were reperfused for 2 h and infarct size was measured by triphenyltetrazolium staining. Treatments included 30 uM VX-765 for 10 min prior to ischemia and throughout reperfusion, 9 uM emricasan for the first 20 min of reperfusion only, Ischemic preconditioning (IPC) with three cycles of 5 min ischemic Plus 5 min reperfusion prior to the index ischemia, or IPC+emricasan.

[3] = tested on: blood-free isolated rat hearts (global I/R injury); assay: Ex vivo isolated buffer-perfused heart, 40-min global ischemia/120-min reperfusion
Experimental: To examine effects of VX-765 on blood-free isolated hearts, rats were anesthetized as described above. Animals were intubated through tracheotomy and positive pressure ventilation initiated with 100% oxygen. A thoracotomy was performed and the heart was quickly excised from the chest cavity for mounting on a Langendorff apparatus (within one minute). The coronary arteries were retroperfused with Krebs buffer through the aortic root and a latex balloon was placed in the lumen of the left ventricle allowing volume adjustment to 100 mmHg peak ventricular pressure. After a 20-min period of equilibration, perfusion was stopped for 40-min to induce global ischemia. The heart was maintained in a water-jacketed chamber filled with buffer during the occlusion period at a constant temperature of 37° C. Perfusion was re-initiated and continued for 120-min. The balloon was deflated at the beginning of reperfusion so subendocardial perfusion would not be impaired by any elevation in luminal diastolic pressure. The balloon was reinflated to zero diastolic pressure (unstressed ventricular volume) so final developed pressure could be measured. The coronary effluent was sampled immediately prior to ischemia, immediately at reperfusion, and serially thereafter every 20-min. The heart was perfused with buffer containing either vehicle (DMSO) or VX-765 for 10-min prior to ischemia and again during reperfusion. Two groups were tested: 1) DMSO vehicle control perfused at 0.5 mL/L of buffer and 2) VX-765, 30 μM final concentration. After 120 minutes reperfusion, developed pressure was measured as the difference between end-systolic and end-diastolic left ventricular pressure with a transducer attached to the intraventricular balloon. Infarct size was measured as above. Collected effluent was analyzed for lactate dehydrogenase (LDH) as previously described. An independent aliquot was concentrated 20-fold using a 3,000 MW cut-off ultrafilter (Millipore) and assayed for IL-113 by ELISA (ThermoFisher Scientific).

IL-1β = assay: In situ open-chest LAD occlusion, 60-min ischemia/30-min reperfusion: serum IL-1β ELISA; type: in vivo, rat; conditions: VX-765 32 mg/kg 5-min prior to reperfusion, FIG. 4A
Experimental: (§1) Applicants' standard in situ open chest LAD occlusion protocol was modified to examine effects of a 30-min reperfusion period on heart tissue enzymes and metabolic function. Two groups were tested with infusions occurring 5-min prior to reperfusion: 1) vehicle control DMSO (the VX-765 solvent) was administered as (1.0 mL of 100% DMSO)×(kg body weight) with the final infusion volume adjusted to 0.9 mL with normal saline; and 2) VX-765, 32 mg/kg. Immediately prior to experiment terminus, blood was collected and serum assayed by ELISA for levels of circulating IL-113. At experiment terminus, the heart was removed from the chest and mounted on a Langendorff apparatus where it was perfused with normal saline. The coronary branch was re-occluded and 15 μm fluorescent microspheres were infused to identify the ischemic zone followed by acquisition of biopsies from both ischemic and non-ischemic zones. […] Normalized amounts of protein were resolved by SDS-PAGE (4-20% Tris-Glycine gradient gels) and analyzed by immunoblotting using antibodies against Caspase-1, glyceraldehyde-3-phosphate dehydrogenase (GAPDH), Aldolase-A, and Hexokinase II. […] For all blotting experiments, protein transfer membranes were first stained with Coomassie Brilliant Blue (CBB) and analyzed on the LiCor Odyssey for total protein levels. […]

[4] = tested on: Caspase-1, GAPDH, Aldolase-A, Hexokinase II; assay: 60-min ischemia/30-min reperfusion: immunoblotting of heart tissue biopsies; type: in vivo, rat
Experimental: (§2) Applicants' standard in situ open chest LAD occlusion protocol was modified to examine effects of a 30-min reperfusion period on heart tissue enzymes and metabolic function. Two groups were tested with infusions occurring 5-min prior to reperfusion: 1) vehicle control DMSO (the VX-765 solvent) was administered as (1.0 mL of 100% DMSO)×(kg body weight) with the final infusion volume adjusted to 0.9 mL with normal saline; and 2) VX-765, 32 mg/kg. Immediately prior to experiment terminus, blood was collected and serum assayed by ELISA for levels of circulating IL-113. At experiment terminus, the heart was removed from the chest and mounted on a Langendorff apparatus where it was perfused with normal saline. The coronary branch was re-occluded and 15 μm fluorescent microspheres were infused to identify the ischemic zone followed by acquisition of biopsies from both ischemic and non-ischemic zones. Viable samples were immediately prepared for high resolution respirometry using the Oroboros oxygraph O2K as previously described. In parallel, a portion of the biopsied tissue was immediately ejected into liquid nitrogen and stored at −80° C. Subsequently, tissues were homogenized and solubilized for analyses of total protein. Normalized amounts of protein were resolved by SDS-PAGE (4-20% Tris-Glycine gradient gels) and analyzed by immunoblotting using antibodies against Caspase-1, glyceraldehyde-3-phosphate dehydrogenase (GAPDH), Aldolase-A, and Hexokinase II. In a separate set of blots, samples were assayed for protein oxidation (carbonylation) using the oxidized protein western blot kit (Abcam, oxyblotting). For all blotting experiments, protein transfer membranes were first stained with Coomassie Brilliant Blue (CBB) and analyzed on the LiCor Odyssey for total protein levels. These CBB data were used to normalize all immuno- and oxyblotting data.

[5] = tested on: mitochondrial complexes (Complex-I, Complex-III); assay: 60-min ischemia/30-min reperfusion: high resolution respirometry of heart tissue biopsies; type: in vivo, rat
Experimental: as §2
Tissue mitochondrial function is reported as the amount of oxygen consumed (i.e., JO2). In this protocol, heart tissues are harvested 30-min after reperfusion to ensure tissue retention of mitochondrial function and permeabilized with detergents to allow direct assessment of each mitochondrial complex via addition of specific substrates (i.e., electron donors) and poisons. Using this early 30-min reperfusion time point allows differentiation of dysfunctional mitochondrial complex activities from the absolute loss of function occurring at later time points after cell death had ensued. As a further level of experimental control, mitochondrial complex activities were assayed in non-ischemic and ischemic zone tissues isolated from animals treated with vehicle control (DMSO) or the Caspase-1 inhibitor VX-765.

protein carbonylation = assay: 60-min ischemia/30-min reperfusion: protein oxidation (carbonylation) oxyblotting of heart tissue; type: in vivo, rat; conditions: ischemic and non-ischemic tissues, FIG. 5D
Experimental: as §1

[6] = tested on: I/R injury of the heart (LAD occlusion); conditions: VX-765 16 mg/kg body weight 30-min prior to onset of ischemia; cited from earlier work
coronary I/R = conditions: rat models of coronary I/R; cited from earlier work

## CSCCNc1nc(SCCC(F)(F)F)nc2c1ncn2[C@@H]1O[C@H](COP(=O)(O)OP(=O)(O)C(Cl)(Cl)P(=O)(O)O)[C@@H](O)[C@H]1O [cangrelor]
[1]
  infarct size / cardioprotection (in words): reduced infarct size
  infarction, % of the risk zone: 43.8±2.4%

## C[C@H](NC(=O)C(=O)Nc1ccccc1C(C)(C)C)C(=O)N[C@@H](CC(=O)O)C(=O)COc1c(F)c(F)cc(F)c1F [emricasan]
[2]; index ischemia 50 min, IPC three cycles 5 min ischemia/5 min reperfusion, 9 uM emricasan
  protection in combination with ischemic preconditioning (IPC): additive protection
[2]
  infarct size reduction (in words): similarly reduced infarct size; also recorded: equipotent for infarct size reduction
[2]; listed as Emricasan
  infarct size reduction (in words): as protective as VX-765 pretreatment

## CCO[C@@H]1OC(=O)C[C@@H]1NC(=O)[C@@H]1CCCN1C(=O)[C@@H](NC(=O)c1ccc(N)c(Cl)c1)C(C)(C)C [VX-765, (S)-1-((S)-2-{[1-(4-amino-3-chloro-phenyl)-methanoyl]-amino}-3,3-dimethyl-butanoyl)-pyrrolidine-2-carboxylic acid ((2R,3S)-2-ethoxy-5-oxo-tetrahydro-furan-3-yl)-amide]
[1]; VX-765 iv prior to ischemia, data not shown
  dose dependence of infarct size reduction (pilot studies): independent of the dose above 16 mg/kg
[1]
  infarct size / cardioprotection (in words): reduced infarct size
  infarction, % of the risk zone: 38.6±3.9%
[3]; VX-765 30 μM, FIG. 3C
  LDH release into coronary effluent: all but abolished
[3]; blood free isolated buffer-perfused heart, FIG. 3
  protection against global I/R injury (in words): protects against global I/R injury
[3]; end of 120-min reperfusion, VX-765 30 μM
  left ventricular developed pressure: 20.5±4.2 mmHg
[3]; isolated rat heart, VX-765 30 μM in perfusate prior to ischemia and during reperfusion
  average infarction: 45.8±1.5%
IL-1β
  IL-1β level in blood, vehicle (DMSO) compared to VX-765: significantly higher levels of IL-113 in blood when compared to animals treated with VX-765
[4]; ischemic tissue, VX-765 32 mg/kg, FIG. 4B
  levels of active Caspase-1 in tissue: did not prevent Caspase-1 activation
[4]; ischemic zone, FIG. 4C
  GAPDH degradation: prevented degradation of GAPDH in the ischemic zone
[4]; ischemic zone, FIG. 4D
  aldolase-A degradation: partially prevented degradation of aldolase-A
[4]; ischemic zone, FIG. 4E
  hexokinase II degradation (negative control): no effect in hexokinase II
[5]; compared to vehicle, FIG. 5C
  Complex-III activity: no significant differences
[5]; different substrates, FIG. 7
  JO2 in different states of mitochondrial respiration: none of the heart tissues from any group displayed JO2 differences
[5]; non-ischemic and ischemic tissues, compared to vehicle, FIG. 5B
  Complex-I activity: significantly decreased Complex-I activity
[5]; tissues reperfused for 30-min, FIG. 5A
  respiratory ratio (mitochondrial fitness): not different among all groups
Protein carbonylation
  protein carbonylation: no differences in protein carbonylation
[2]
  infarct size reduction (in words): similarly reduced infarct size; also recorded: equipotent for infarct size reduction
[6]
  cardioprotection, previously reported: extremely cardioprotective

## zVAD
Coronary I/R
  infarct size: reduced infarct size

## CCCSc1nc(N[C@@H]2C[C@H]2c2ccc(F)c(F)c2)c2nnn([C@@H]3C[C@H](OCCO)[C@@H](O)[C@H]3O)c2n1 [ticagrelor]
[1]; IPOC three cycles of 30 s reperfusion/30 s occlusion at end of 60 min ischemia, FIG. 10
  protection when combined with ischemic postconditioning (IPOC): no more protective than either alone
[1]
  infarct size / cardioprotection (in words): reduced infarct size; also recorded: no more cardioprotective than cangrelor
  infarction, % of the risk zone: 42.8±3.3%
